Columns and labels:
[1] = Antiproliferative activity against human A375P cells after 24 hrs by MTT assay; assay type: functional, cell-based
[2] = test system: HS27; test: Antiproliferative activity against human HS27 cells after 24 hrs by MTT assay; assay type: cell-based; details: HS27, 24 h

Nc1ncnc2c1ccn2-c1ccc(NC(=O)Nc2ccc(Cl)c(Cl)c2)cc1
IC50 [1]: 5.4 µM
IC50 [2]: 2.9 µM

CC(=O)Nc1ncnc2c1ccn2-c1ccc(NC(=O)c2ccc(Cl)c(C(F)(F)F)c2)cc1
IC50 [1]: > 10 µM
IC50 [2]: > 10 µM

Nc1ncnc2c1ccn2-c1ccc(NC(=O)c2ccc(Cl)c(C(F)(F)F)c2)cc1
IC50 [1]: 2.9 µM
IC50 [2]: 5.6 µM

Nc1ncnc2c1ccn2-c1ccc(NC(=O)Nc2ccc(Cl)c(C(F)(F)F)c2)cc1
IC50 [1]: 8.1 µM
IC50 [2]: > 10 µM

Nc1ncnc2c1ccn2-c1ccc(NC(=O)Nc2cc(C(F)(F)F)cc(C(F)(F)F)c2)cc1
IC50 [1]: 3 µM
IC50 [2]: 9.5 µM

O=C(Nc1ccc(-n2ccc3c(NC(=O)c4ccccc4)ncnc32)cc1)c1ccc(Cl)c(Cl)c1
IC50 [1]: 2 µM
IC50 [2]: 5 µM

Nc1ncnc2c1ccn2-c1ccc(NC(=O)c2cccc(C(F)(F)F)c2)cc1
IC50 [1]: 9.7 µM
IC50 [2]: 7.1 µM

O=C(Nc1ccc(-n2ccc3c(NC(=O)c4ccccc4)ncnc32)cc1)Nc1ccc(Cl)c(C(F)(F)F)c1
IC50 [1]: 4.6 µM
IC50 [2]: 6 µM

CC(=O)Nc1ncnc2c1ccn2-c1ccc(NC(=O)Nc2ccc(Cl)c(C(F)(F)F)c2)cc1
IC50 [1]: > 10 µM
IC50 [2]: > 10 µM

O=C(Nc1ccc(-n2ccc3c(NC(=O)c4ccccc4)ncnc32)cc1)Nc1cccc(Cl)c1Cl
IC50 [1]: 4.1 µM
IC50 [2]: 7.8 µM

Cc1cn(-c2cc(C(=O)Nc3ccc(-n4ccc5c(NC(=O)c6ccccc6)ncnc54)cc3)cc(C(F)(F)F)c2)cn1
IC50 [1]: 0.8 µM
IC50 [2]: 2.8 µM

O=C(Nc1ccc(-n2ccc3c(NC(=O)c4ccccc4)ncnc32)cc1)c1ccc(N2CCOCC2)c(C(F)(F)F)c1
IC50 [1]: 0.9 µM
IC50 [2]: 1.6 µM

O=C(Nc1ccc(-n2ccc3c(NC(=O)c4ccccc4)ncnc32)cc1)c1cc(C(F)(F)F)cc(C(F)(F)F)c1
IC50 [1]: 2 µM
IC50 [2]: 6.6 µM

O=C(Nc1ccc(-n2ccc3c(NC(=O)c4ccccc4)ncnc32)cc1)Nc1cc(C(F)(F)F)cc(C(F)(F)F)c1
IC50 [1]: 9.8 µM
IC50 [2]: > 10 µM

O=C(Nc1ccc(-n2ccc3c(NC(=O)c4ccccc4)ncnc32)cc1)Nc1ccc(Cl)c(Cl)c1
IC50 [1]: 4 µM
IC50 [2]: 4.5 µM

CC(=O)Nc1ncnc2c1ccn2-c1ccc(NC(=O)Nc2cccc(Cl)c2Cl)cc1
IC50 [1]: > 10 µM
IC50 [2]: > 10 µM

O=C(Nc1ccc(-n2ccc3c(NC(=O)c4ccccc4)ncnc32)cc1)Nc1cccc(C(F)(F)F)c1
IC50 [1]: 9.5 µM
IC50 [2]: 4.5 µM

O=C(Nc1ccc(-n2ccc3c(NC(=O)c4ccccc4)ncnc32)cc1)c1cccc(C(F)(F)F)c1
IC50 [1]: 4.7 µM
IC50 [2]: 5.9 µM

O=C(Nc1ccc(-n2ccc3c(NC(=O)c4ccccc4)ncnc32)cc1)c1ccc(Cl)c(C(F)(F)F)c1
IC50 [1]: 2.3 µM
IC50 [2]: 5.5 µM

CNC(=O)c1cc(Oc2ccc(NC(=O)Nc3ccc(Cl)c(C(F)(F)F)c3)cc2)ccn1 [SORAFENIB]
IC50 [1]: 5.6 µM

Reference: ChEMBL document CHEMBL1154660, “Synthesis of pyrrolo[2,3-d]pyrimidine derivatives and their antiproliferative activity against melanoma cell line” (Bioorg Med Chem Lett, 2009)
